Patent US20230099969A1, “TWO-PHOTON FLUORESCENT PROBE COMPOUND SELECTIVE FOR AMYLOID BETA PLAQUES AND METHOD FOR IMAGING AMYLOID BETA PLAQUES USING SAME” (Korea University Research and Business Foundation, priority 2020, published 2023)
Values after ≈ are worked out from the molar mass of the structure shown. Blank lines part the entries; values can stand above or below the compound they belong to.

What was measured:
[1] = pH-dependent absorbance, pKa fitting; type: physicochemical; conditions: PBS (10 mM) with pH adjustment; absorbance at 405 nm, pH 2-10, PBS 10 mM
Method: The absorbance of IRI-1 (10 μM) was recorded in PBS (10 mM), with pH adjustment, to maintain a constant salt concentration.

[2] = target: T1, human serum albumin (HSA) (Homo sapiens, UniProt P02768); test: Fluorescence in the presence of HSA; conditions: HSA 20 μM, PBS pH 7.4, 2% DMF
T1 construct: purchased
T1 sequence (P02768 25-609): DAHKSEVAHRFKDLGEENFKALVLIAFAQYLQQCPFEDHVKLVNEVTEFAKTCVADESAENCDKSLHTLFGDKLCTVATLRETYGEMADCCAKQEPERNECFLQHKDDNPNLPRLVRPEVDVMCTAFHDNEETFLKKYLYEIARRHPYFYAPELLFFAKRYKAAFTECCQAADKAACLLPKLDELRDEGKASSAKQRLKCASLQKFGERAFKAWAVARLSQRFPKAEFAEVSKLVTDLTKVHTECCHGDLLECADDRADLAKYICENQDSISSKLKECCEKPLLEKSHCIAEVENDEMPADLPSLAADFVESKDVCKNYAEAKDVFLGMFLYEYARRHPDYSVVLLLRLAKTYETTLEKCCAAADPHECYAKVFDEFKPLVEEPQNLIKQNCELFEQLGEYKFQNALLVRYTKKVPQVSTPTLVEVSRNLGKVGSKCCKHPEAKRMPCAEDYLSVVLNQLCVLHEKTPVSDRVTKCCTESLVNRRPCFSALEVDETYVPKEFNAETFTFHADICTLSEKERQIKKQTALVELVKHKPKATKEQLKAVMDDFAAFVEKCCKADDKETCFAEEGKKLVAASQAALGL
Method: (§1) To measure spectra in the presence of analytes, stock solutions of ThT and IRI-1 were prepared in DMF and added to solutions of the analytes in PBS to finally obtain a solution containing 2% DMF. All emission spectra were obtained after 2 min stirring at 37° C. The excitation and emission slit widths were 3/5.

Aβ fibrils (Aβ1-42) = target: T2, Aβ fibrils (Aβ1-42) (Homo sapiens, UniProt P05067); test: Aβ1-42 saturation titration (fluorescence at 566 nm); type: binding
T2 construct: lyophilized Aβ1-42 peptides were dissolved in 100% HFIP; purchased GenicBio Limited (Shanghai, China)
T2 sequence (P05067 672-713 limits assumed): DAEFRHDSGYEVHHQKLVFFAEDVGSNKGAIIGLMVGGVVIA
Method: (§2) Aβ1-42 protein was prepared following a literature procedure (J. Hatai, L. Motiei, D. Margulies, J. Am. Chem. Soc. 2017, 139, 2136-2139). Briefly, lyophilized Aβ1-42 peptides were dissolved in 100% HFIP (1,1,1,3,3,3-hexafluoro-2-isopropanol) at a concentration of 2 mg mL^−1 and incubated at 25° C. for 2 h. After incubation, solution was removed under a gentle flow of argon. The peptide was dried using a lyophilizer for 40 h. AO (1 mg) was resuspended in aqueous NaOH (0.5 mL, 2 mM) and sonicated at 0° C. for 10 min. HFIP/NaOH-treated AO samples were diluted to 200 μM with PBS (0.6 mL, […], pH=7.4) and agitated using a shaker (Biofree) for 30 h. The solution was diluted to 20 μM with PBS (9.9 mL, 20 mM, pH=7.4), prior to each experiment.
Both Aβ1-42 and IRI-1 are virtually non-fluorescent, and a simplified formula can be used where the fluorescence intensity is directly proportional to the concentration of the (Aβ1-42-IRI-1) complex only:
With F: a fluorescence proportionality factor, [IRI1]: the initial concentration of IRI-1, [Aβ]: the initial concentration of Aβ1-42, N: the number of equivalent binding sites on the Aβ fibril relative to Aβ monomer, and Kd: the dissociation constant.
The results in FIG. 1D were obtained following a multi-parameter optimization of the experimental results following the fluorescence intensity at 566 nm, using a concentration of 10 μM Aβ1-42 and incremental concentrations of IRI-1 in PBS containing 2% DMF. The slit width was set at 3/3. The best fittings were obtained for N=¼, i.e. one binding site per 4 Aβ1-42, consistent with the hypothesized high affinity cross-β-sheet binding site on the protein fibril.

SH-SYSY cells = test: Cell viability MTT assay; type: cell-based, human; conditions: concentrations up to 50 μM, 24 h
Method: Cell viability was assessed by the MTT (3-4,5-dimethylthiazol-2-yl)-2,5-diphenyltetrazolium bromide) assay. SH-SYSY cells (1×10^4 per well) were treated with various concentrations of IRI-1 in a 96-well plate for 24 h at 37° C.

in vitro = conditions: PAMPA
Method: (§3) The BBB-PAMPA was conducted following the manufacturer's instructions (pION, Inc, MA, USA). […] The transmembrane side to the donor part was coated with BBB-lipid solution and 200 μL acceptor buffer was added in the upper chambers of the PAMPA sandwich plate. After incubation for 4 h at 25° C., all samples were transferred to a new U.V plate and then the U.V spectra were measured at a wavelength from 250 nm to 498 nm with a multifunctional microplate reader (Tecan, Infinite M200 Pro, San Jose, Calif., USA) and the permeability rate (Pe, 10^−6 cm/s) was determined using pION PAMPA Explorer software (ver3.8).

[3] = Fluorescence in mouse brain homogenates
Method: as §1
Male ICR mice (10-weeks-old) from Daehan Biolink Co. Ltd. (Eumseong, Korea) were used in this experiment. The mice were accommodated at a constant temperature (23±1° C.), humidity (60±10%), and a 12 h light/dark cycle with free access to water and food. The mice were handled in accordance with the Principle of Laboratory Animal Care (NIH Publication No. 80-23; revised 1978) and the Animal Care and Use Guidelines of KyungHee University, Seoul, Korea (approval number: KHUASP(SE)-18-130). Mice were anesthetized with tribromoethanol (20 μL/g of body weight, Sigma Aldrich, USA) and then, the whole brain was removed quickly. After the washing with 0.1 M PBS, the brain tissue was excised by scissors and homogenized with a pellet pestles cordless motor (Sigma Aldrich, USA) in 2 mL of 0.1 M PBS (pH 7.4). The mixture was centrifuged at 1,000 g (Smart R17 Plus centrifuge, Hanil Scientific, Korea) for 15 min at 4° C. and the supernatant was collected. The pooled brain homogenates of 3 mice were collected and diluted to a final volume of 6 mL with PBS and used for fluorescence studies.

Aβ fibrils = target: T3, Aβ fibrils (Homo sapiens, UniProt P05067); test: Fluorescence response in the presence of Aβ fibrils; conditions: Aβ fibrils 20 μM versus PBS containing 2% DMF
T3 construct: lyophilized Aβ1-42 peptides were dissolved in 100% HFIP; purchased GenicBio Limited (Shanghai, China)
T3 sequence (P05067 672-713 limits assumed): as above
Method: as §1, §2

Aβ plaques [4] = target: T4, Aβ plaques (Homo sapiens, UniProt P05067); test: In vivo two-photon microscopy imaging; design: species or system 5xFAD-Tg mice; depth up to which individual Aβ plaques could be detected: unit not given here
T4 construct: from tissue; host or cells: brain of 5xFAD-Tg mice: ex vivo slices at 11 months, in vivo frontal cortex at 10-12 months
T4 sequence (P05067 672-713 limits assumed): as above
Method: All animal studies and maintenance were approved by the Institutional Animal Care and Use Committee (IACUC) of Seoul National University, Korea. 10-12-month-old 5xFAD (Tg6799; Jackson Lab Stock No. 006554) AD model mice were anesthetized with the mixture of Tiletamine-Zolazepam (Virbac, France) and Xylazine (Bayer Korea, Korea) via intramuscular (IM) injection (1.2 mg kg^−1) and then fixed on a customized stereotactic heating plate (37° C., Live cell instrument, Seoul, Korea). The mouse scalp was sterilized with Povidone Iodine (Firson, Korea) and then removed. A drop of Epinephrine was applied to the incision site to relieve local pain and bleeding. The periosteum was also removed in this step. When the scalp and periosteum were clearly removed and the skull dried, a small hole (3 mm diameter) was carefully made in the parietal bone with a microdrill. A 5 mm round coverslip was attached to the surgery site with Loctite 454 and dental acrylate was applied around the site. A solution of IRI-1 in 25% DMSO/PBS (5 mg kg^−1) was injected intraperitoneally (i.p.) before TPM imaging. TPM live imaging was conducted using an LSM 7 MP two-photon laser-scanning microscope (Carl Zeiss Microscopy GmbH, Germany) equipped with a Chameleon-Ultra-II laser system (Coherent, USA). An appropriately tuned laser (780-920 nm wavelength, 30 mW intensity) was applied to the imaging site transiently. Emission signals were obtained through the red channel (555-610 nm), or blue channel (485-490 nm) NDD filter set. TPM images were processed and 3D reconstructed using Volocity Software (Perkin-Elmer, Waltham, Mass., USA).

[5] = Solubility of IRI-1 in PBS (absorbance at 405 nm); type: physicochemical; conditions: aqueous buffer, kinetic from dmso stock, PBS containing 2% DMSO, read-out: concentration up to which the dye exists as a monomer in PBS, above which soluble aggregates form
Method: The absorbance of IRI-1 at different concentrations in the 0-50 μM range was recorded at 405 nm in a PBS solution containing 2% DMSO. Deviation from linearity indicates the formation of aggregates.

Photostability in DMF = type: physicochemical; conditions: solution in DMF, halogen lamp irradiation 35 min
Method: A solution of IRI-1 with an absorbance of 1.0 at the maximum absorbance wavelength was prepared in DMF. A 3100 K halogen lamp (Olympus LG-PS2; 12 V, 100 W) was used for irradiation and the absorbance was recorded at 5 min intervals for 35 min.

[6] = Fluorescence response to potential interferents; conditions: metal ions, amino acids, thiols 20 μM in PBS, λem 566 nm
Method: as §1

Aβ plaques [7] = target: T4, Aβ plaques; test: Ex vivo two-photon microscopy imaging of brain slices; design: species or system 5xFAD-Tg mice; conditions: 20 μM, 2 h incubation, n=15
Method: Brain tissues were isolated from 11-month-old 5xFAD-Tg mice. All animal protocols were approved by the Institutional Animal Care and Use Committee (IACUC) of KyungHee University, Korea (Approval number: KHUSAP (SE)-18-123). The isolated brain was immediately frozen with dry ice and horizontally sectioned by using a surgical blade (No. 10, […] safety razor Co., LTD, Japan). Sectioned brain tissues were immersed in a DMEM-buffered solution containing IBC 2 or IRI-1 (20 μM), and then incubated at 37° C. for different durations (0.5 h, 1 h and 2 h). After incubation, the brain tissues were washed with PBS (×3) and fixed in 4% paraformaldehyde solution until TPM imaging, using upright microscopy (Leica, Nussloch, Germany). […] TPM images were obtained by collecting the fluorescence from an emission channel of 580-779 nm. To compare the plaque and background signal of IBC 2 and IRI-1, TPM images analyzed by using Leica software. 15 Aβ-plaque regions as well as 15 background regions were randomly chosen for each dye at each incubation time. Bootstrap resampling (n=100,000) was performed on the 15 Aβ and background samples to estimate the population distribution of the signal to background ratios for each of the dyes at the different incubation times as well as to estimate the significance level of the difference of these population distributions.

[8] = target: T5, bovine serum albumin (BSA) (Bos taurus, UniProt P02769); test: Fluorescence in the presence of BSA; conditions: BSA 20 μM, PBS pH 7.4, 2% DMF
T5 construct: purchased
T5 sequence (P02769 25-607): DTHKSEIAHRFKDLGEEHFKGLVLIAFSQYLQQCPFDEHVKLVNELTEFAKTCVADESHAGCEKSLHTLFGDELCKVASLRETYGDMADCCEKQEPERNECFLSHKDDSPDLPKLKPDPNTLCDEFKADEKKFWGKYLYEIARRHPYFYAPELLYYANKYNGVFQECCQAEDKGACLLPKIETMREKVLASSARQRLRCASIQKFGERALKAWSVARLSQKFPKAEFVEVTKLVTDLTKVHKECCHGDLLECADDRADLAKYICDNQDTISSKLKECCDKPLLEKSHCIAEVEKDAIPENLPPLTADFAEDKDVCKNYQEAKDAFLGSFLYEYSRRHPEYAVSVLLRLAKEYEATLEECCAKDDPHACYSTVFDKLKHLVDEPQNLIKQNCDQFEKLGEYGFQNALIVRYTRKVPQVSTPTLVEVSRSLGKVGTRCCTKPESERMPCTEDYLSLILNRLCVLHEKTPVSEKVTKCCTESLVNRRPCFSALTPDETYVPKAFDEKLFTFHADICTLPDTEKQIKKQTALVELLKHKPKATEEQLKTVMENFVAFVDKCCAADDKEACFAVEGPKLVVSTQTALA
Method: as §1

[9] = BBB-penetrability PAMPA assay
Method: as §3

[10] = pH 7.4, Permeability classification

pKa [1]: 4.22 ± 0.12
Kd (Aβ fibrils (Aβ1-42); Aβ fibrils 10 μM, IRI-1 0-50 μM, PBS containing 2% DMF, nonlinear fitting, read-out: binding affinity toward Aβ fibrils, Kd): 374 ± 115 nM
N, number of equivalent binding sites on the Aβ fibril relative to Aβ monomer (Aβ fibrils (Aβ1-42); best fitting, one binding site per 4 Aβ1-42): ¼
binding affinity relative to that previously reported for ThT (Aβ fibrils (Aβ1-42); versus literature value for ThT): two- to three-folds stronger
Papp at 4 h (in vitro; pH 7.4, Pe): 0.562 ± 0.053 ×10⁻⁶ cm/s
Papp at 4 h (in vitro; [10]): > 0.4 ×10⁻⁶ cm/s
fluorescence enhancement in the presence of Aβ fibrils (Aβ fibrils): 167 fold
BBB penetration (Aβ plaques [4]; 5 mg kg^−1 i.p.): good BBB penetration
time to full saturation of fluorescence enhancement of Aβ plaques in the frontal cortex (Aβ plaques [4]; 5 mg kg^−1 i.p., excitation 920 nm): approximately 40 min
depth up to which individual Aβ plaques could be detected (Aβ plaques [4]; 3D two-photon imaging, 5 mg kg^−1 i.p.): ≤ 172
overlap of images with co-administered MeO-X04 (Aβ plaques [4]; co-administration, frontal cortex): near perfect overlap
solubility [5]: 4.7 µM (≈ 1.36 µg/mL)
signal-to-background ratio, elevation compared to IBC-2 (Aβ plaques [7]): approximately 3.75 fold
Compound: CN(C)c1ccc(-c2ccc3cc(C#N)c(=N)oc3c2)cc1 [IRI-1]
fluorescence enhancement in the presence of HSA [2]: only relatively weak fluorescence enhancement
cytotoxicity (SH-SYSY cells): no significant toxicity
fluorescence enhancement in the presence of mouse brain homogenates [3]: only relatively weak fluorescence enhancement
resistance to photobleaching (Photostability in DMF): relatively high resistance to photobleaching
fluorescent response to potential interferants [6]: no or negligible fluorescence enhancement
fluorescence enhancement in the presence of BSA [8]: only relatively weak fluorescence enhancement

Papp at 4 h (in vitro; pH 7.4, Pe): 39.5 ± 5.59 ×10⁻⁶ cm/s
Papp at 4 h (in vitro; [10]): > 0.4 ×10⁻⁶ cm/s
Compound: CC(=O)[C@H]1CC[C@H]2[C@@H]3CCC4=CC(=O)CC[C@]4(C)[C@H]3CC[C@]12C [Progesterone, reference compound]

fluorescence enhancement in the presence of Aβ fibrils (Aβ fibrils): 20 fold
Permeability classification [9]: Not permeable
Pe ([9]; pH 7.4, 4 h at 25° C., mean and standard deviation, n = 3): 0^c 10^−6 cm/s
Compound: Cc1ccc2c(c1)sc(-c1ccc(N(C)C)cc1)[n+]2C.[Cl-] [Thioflavin T]
